Test results taken from patent publication US7041821B2, “Synthetic molecules for labeling histidine-rich proteins” (The Regents of the University of California, priority 2003, dated 2006).
Where two headings read alike, the source gives them in different places.

Assays:
[1] = tested on: HEK293 cells expressing a His6-tagged test-protein
Text: A gene encoding the peptide […] (His6-) was created by the polymerase chain reaction (PCR), using pRSETB template (Invitrogen). BglII and SacII restriction sites were incorporated at the 5′ and 3′ ends of the gene, by using the forward primer […] and reverse primer […]. For expression on the surface of mammalian cells, the gene was inserted into the pDisplay vector (Invitrogen) using the BglII and SacII restriction sites. This vector supplies the necessary sequences for entry into the secretory pathway and anchoring to the outer face of the plasma membrane.
HEK 293 cells were plated onto sterilized glass cover slips on 2 cm dishes or 10 cm plates and grown to 50–100% confluency in DMEM supplemented with 10% FBS at 37° C. in 6% CO2. Cells were transfected with FUGENE-6 transfection reagent (Roche Molecular Biochemicals). After 24 to 48 h incubation at 37° C. in culture medium, the cells were washed once with Hanks' balanced salt solution buffer (HBSS). Then 2 mL of the staining solution (HEPES buffer with 1 μM free Zn^2+ (pH 7.4), ˜1–1.5 μM of compound (I) (DMSO stock)) was added to the cells. After 1 min, the cells were washed twice with HBSS and imaged. Imaging experiments were performed with excitation at 540 nm (25 nm bandwidth), emission at 595 nm (50 nm bandwidth), and dichroic mirror at 560 nm for the Zn-compound (I); and excitation at 420 nm (20 nm bandwidth), emission at 475 nm (40 nm bandwidth) and dichroic mirror at 450 nm for CFP.
(§1) A solution of Compound (I) in buffer containing 1 μM Zn^2+ was added extracellularly to intact HEK293 cells expressing a His6-tagged test-protein, targeted to the surface of the cell membrane.

poly-histidine peptide = tested on: poly-histidine peptide
Description: as §1

his6-CFP = settings: +Zn2+ + his6-CFP: 1 μM dye, pH 7.2, 100 μM ZnCl2 and 1 μM his6-CFP
Description: Excitation (ex), emission (em) maxima (in nm) and fluorescence quantum yields (φ) of 1 μM dye in 100 mM KCl 10 mM MOPS pH 7.2 with 50 μM EDTA (—Zn^2+), 100 μM ZnCl2 (+Zn^2+) or 100 μM ZnCl2 and 1 μM his6-CFP (+Zn^2++his6-CFP).

[2] = remark: listed apart in the source
Description: Formation of the Zn-complex can be monitored by absorbance or fluorescence emission and excitation shifts. Aliquots of a dye stock solution in DMSO were added to 500 μL of buffers containing 10 nM, 100 nM, 1 μM or 10 μM free zinc (controlled by Ca^2+/Zn^2+ EGTA and 10 mM HEPES; see Walkup, G. K., Burdette, S. C., Lippard, S. J., and Tsien, R. Y., J. Am. Chem. Soc. 2000, 122, 5644–5645) or zinc free (10 mM HEPES, 1 mM EDTA buffer) solutions to yield approximately 1–1.5 μM dye solution (ε˜65,500 M^−1 cm^−1).

[3] = +Zn2+: 1 μM dye, pH 7.2, 100 μM ZnCl2
[4] = −Zn2+: 1 μM dye, 100 mM KCl 10 mM MOPS pH 7.2, 50 μM EDTA

Compound | Emission maximum (em) [3] | Excitation maximum (ex) [3] | Fluorescence quantum yield (φ) [3] | Emission maximum (em) [4] | Excitation maximum (ex) [4] | Fluorescence quantum yield (φ) [4] | Speed of staining ([1]; intact HEK293 cells, 1 μM Zn2+) | Staining of non-transfected cells ([1]; neighboring non-transfected HEK293 cells, same staining) | Reversibility of staining ([1]; washing with EDTA solutions (FIG. 7)) | Staining of transfected cells ([1]; ~1–1.5 μM compound, 1 μM free Zn2+, added extracellularly, 1 min, washed) | Fluorescence anisotropy binding (poly-histidine peptide) | Emission maximum (em) (his6-CFP) | Excitation maximum (ex) (his6-CFP) | Fluorescence quantum yield (φ) (his6-CFP) | Extinction coefficient ε ([2]; dye solution in HEPES buffers) | Fluorescence quantum yield ([2]; virtually unchanged between 0 and 1 μM free Zn2+ (FIG. 2))
Cc1c(O)c(NS(=O)(=O)c2ccccn2)cc2c1Oc1c(cc(NS(=O)(=O)c3ccccn3)c(O)c1C)C21OC(=O)c2ccccc21 [Compound I, 2′,7′-Bis(pyridyl-2-sulfonamido)-4′,5′-dimethylfluorescein] | 557 nm | 523 nm | 0.34 | 545 nm | 518 nm | 0.40 | stains cells virtually instantaneously | no staining | staining is reversible by washing with EDTA solutions | transfected cells clearly showed membrane specific fluorescent staining | clearly indicate binding to a poly-histidine peptide | 560 nm | 536 nm | 0.09 | ~65,500 M^−1 cm^−1 | ~0.4
2′,7′-bis(2-pyridylsulfonamido)-4′,5′-difluorofluorescein [Compound IV] | 566 nm | 533 nm | 0.35 | 547 nm | 525 nm | 0.60 |  |  |  |  |  | 570 nm | 545 nm | 0.08 |  | 
2′,7′-bis(2-dimethylaminoethanesulfonamido)-4′,5′-difluorofluorescein [Compound II] | 560 nm | 523 nm | 0.37 | 544 nm | 517 nm | 0.47 |  |  |  |  |  | 560 nm | 531 nm | 0.19 |  | 
